Data: patent US9765067B2, “Thiophen-2-yl-pyridin-2-yl-1H-pyrazole-4-carboxylic acid derivatives and the use thereof as soluble guanylate cyclase activators” (Novartis AG, priority 2014, dated 2017)
pEC50: −log10 of the molar value.

Molecular target: T1, soluble guanylate cyclase (human GUCYA3/GUCYB3) overexpressed in CHO cells (Homo sapiens, UniProt Q02108+Q02153)
T1 construct: expressed in transfected cells
T1 sequence (Q02108 1-690 partner): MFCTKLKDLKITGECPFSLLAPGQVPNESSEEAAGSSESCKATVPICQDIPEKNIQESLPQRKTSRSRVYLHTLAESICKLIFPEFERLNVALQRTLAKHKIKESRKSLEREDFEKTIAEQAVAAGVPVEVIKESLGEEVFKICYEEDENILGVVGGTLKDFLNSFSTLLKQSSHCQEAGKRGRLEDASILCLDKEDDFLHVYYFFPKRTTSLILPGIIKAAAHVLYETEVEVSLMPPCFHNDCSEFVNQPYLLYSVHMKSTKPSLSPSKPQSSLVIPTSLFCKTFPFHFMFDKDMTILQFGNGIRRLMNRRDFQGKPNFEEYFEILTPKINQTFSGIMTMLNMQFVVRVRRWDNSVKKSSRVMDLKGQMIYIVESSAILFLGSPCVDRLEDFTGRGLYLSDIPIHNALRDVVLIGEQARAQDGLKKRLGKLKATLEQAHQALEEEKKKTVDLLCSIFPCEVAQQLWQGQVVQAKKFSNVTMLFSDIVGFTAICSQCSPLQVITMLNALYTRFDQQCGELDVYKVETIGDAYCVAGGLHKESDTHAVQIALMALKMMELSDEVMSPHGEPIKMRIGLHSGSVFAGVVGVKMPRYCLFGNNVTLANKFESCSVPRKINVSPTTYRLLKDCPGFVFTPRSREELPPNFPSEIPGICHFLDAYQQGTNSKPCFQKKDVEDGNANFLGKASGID
T1 sequence (Q02153 1-619): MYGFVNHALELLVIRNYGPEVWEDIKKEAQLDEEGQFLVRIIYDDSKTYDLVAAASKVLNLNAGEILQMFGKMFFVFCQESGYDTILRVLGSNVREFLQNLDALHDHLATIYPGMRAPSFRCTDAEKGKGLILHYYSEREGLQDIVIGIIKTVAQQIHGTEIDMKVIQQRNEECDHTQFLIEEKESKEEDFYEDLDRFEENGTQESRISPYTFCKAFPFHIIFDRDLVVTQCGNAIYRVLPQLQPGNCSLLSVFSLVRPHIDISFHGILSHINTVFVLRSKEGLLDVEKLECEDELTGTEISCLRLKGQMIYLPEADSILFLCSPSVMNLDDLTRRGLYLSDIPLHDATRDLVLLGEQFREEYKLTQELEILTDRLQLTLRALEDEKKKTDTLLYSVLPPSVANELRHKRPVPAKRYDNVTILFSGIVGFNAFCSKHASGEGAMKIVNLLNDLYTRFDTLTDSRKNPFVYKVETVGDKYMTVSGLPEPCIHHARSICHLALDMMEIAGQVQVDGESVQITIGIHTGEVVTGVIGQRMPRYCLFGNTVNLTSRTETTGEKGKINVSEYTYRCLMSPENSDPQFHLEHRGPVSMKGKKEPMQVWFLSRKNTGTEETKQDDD
Assay: CHO cellular assay (cGMP production, HTRF)
Assay type: cell-based
Settings: CHO K1 clone 8E10 overexpressing human sGC, Cisbio HTRF, 1 h room temperature, 1 mM IBMX, 20 uM ODQ, minimum quantification limit 0.5 nM
Procedure, shortened: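 Stable CHO K1 clone expressing human GUCYA3/GUCYB3. Compounds applied 1 h at room temperature in HBSS, 0.1% BSA, 1 mM IBMX, 20 uM ODQ, 0.5% DMSO. cGMP measured by HTRF and interpolated from a standard curve; EC50 from 4-parameter sigmoidal fit.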

Structure (SMILES) | pEC50
O=C(O)c1cnn(-c2cccc(-c3sccc3COc3ccc(C4CCN(C(=O)C5CC5)CC4)cc3C(F)(F)F)n2)c1C(F)(F)F [Example 33-1, 1-(6-(3-((4-(1-(Cyclopropanecarbonyl)piperidin-4-yl)-2-(trifluoromethyl)phenoxy)methyl)thiophen-2-yl)pyridin-2-yl)-5-(trifluoromethyl)-1H-pyrazole-4-carboxylic acid] | 7.64
O=C(O)c1cnn(-c2cccc(-c3sccc3COc3ccc(C4CCN(C(=O)C5CC5)CC4)cc3Cl)n2)c1C(F)(F)F [Example 8, 1-(6-(3-((2-Chloro-4-(1-(cyclopropanecarbonyl)piperidin-4-yl)phenoxy)methyl)thiophen-2-yl)pyridin-2-yl)-5-(trifluoromethyl)-1H-pyrazole-4-carboxylic acid] | ≥ 9.30
CCc1cc(OCc2cc(C)sc2-c2cccc(-n3ncc(C(=O)O)c3C(F)(F)F)n2)cnc1C1CCN(C(=O)C2CC2)CC1 [Example 35-14, 1-(6-(3-(((6-(1-(Cyclopropanecarbonyl)piperidin-4-yl)-5-ethylpyridin-3-yl)oxy)methyl)-5-methylthiophen-2-yl)pyridin-2-yl)-5-(trifluoromethyl)-1H-pyrazole-4-carboxylic acid] | 7.82
CCc1cc(OCc2cc(C)sc2-c2cccc(-n3ncc(C(=O)O)c3C(F)(F)F)n2)ccc1C1CCN(C(=O)N(C)C)CC1 [Example 35-7, 1-(6-(3-((4-(1-(Dimethylcarbamoyl)piperidin-4-yl)-3-ethylphenoxy)methyl)-5-methylthiophen-2-yl)pyridin-2-yl)-5-(trifluoromethyl)-1H-pyrazole-4-carboxylic acid] | ≥ 9.30
Cc1cc(C2CCN(CC(F)(F)F)CC2)ccc1NCc1c(C)csc1-c1cccc(-n2ncc(C(=O)O)c2C(F)(F)F)n1 [Example 20-3, 1-(6-(4-Methy1-3-(((2-methy1-4-(1-(2,2,2-trifluoroethyl)piperidin-4-yl)phenyl)amino)methyl)thiophen-2-yl)pyridin-2-yl)-5-(trifluoromethyl)-1H-pyrazole-4-carboxylic acid] | 7.41
CCc1cc(C2CCN(C(=O)C3CC3)CC2)ccc1OCc1cc(C)sc1-c1cccc(-n2ncc(C(=O)O)c2C(F)(F)F)n1 [Example 6-15, 1-(6-(3-((4-(1-(Cyclopropanecarbonyl)piperidin-4-yl)-2-ethylphenoxy)methyl)-5-methylthiophen-2-yl)pyridin-2-yl)-5-(trifluoromethyl)-1H-pyrazole-4-carboxylic acid] | 8.02
Cc1cc(C2CCN(C(=O)C3CC3)CC2)ccc1OCc1cc(Cl)sc1-c1cccc(-n2ncc(C(=O)O)c2C(F)(F)F)n1 [Example 6-3, 1-(6-(5-Chloro-3-((4-(1-(cyclopropanecarbonyl)piperidin-4-yl)-2-methylphenoxy)methyl)thiophen-2-yl)pyridin-2-yl)-5-(trifluoromethyl)-1H-pyrazole-4-carboxylic acid] | ≥ 9.30
CCc1cc(OCc2cc(C)sc2-c2cccc(-n3ncc(C(=O)O)c3C)n2)ccc1C1CCN(C(=O)C2CC2)CC1 [Example 10-4, 1-(6-(3-((4-(1-(Cyclopropanecarbonyl)piperidin-4-yl)-3-ethylphenoxy)methyl)-5-methylthiophen-2-yl)pyridin-2-yl)-5-methyl-1H-pyrazole-4-carboxylic acid] | ≥ 9.30
O=C(O)c1cnn(-c2cccc(-c3sccc3COc3ccc(C4CCN(C(=O)C5CC5)CC4)cc3)n2)c1C(F)(F)F [Example 2-3, 1-(6-(3-((4-(1-(Cyclopropanecarbonyl)piperidin-4-yl)phenoxy)methyl)thiophen-2-yl)pyridin-2-yl)-5-(trifluoromethyl)-1H-pyrazole-4-carboxylic acid] | 8.55
CCC(=O)N1CCC(c2ccc(OCc3cc(C)sc3-c3cccc(-n4ncc(C(=O)O)c4C(F)(F)F)n3)cc2)CC1 [Example 4-2, 1-(6-(5-Methyl-3-((4-(1-propionylpiperidin-4-yl)phenoxy)methyl)thiophen-2-yl)pyridin-2-yl)-5-(trifluoromethyl)-1H-pyrazole-4-carboxylic acid] | 8.52
COC(=O)N1CCC(c2ccc(OCc3cc(C)sc3-c3cccc(-n4ncc(C(=O)O)c4C(F)(F)F)n3)c(C)c2)CC1 [Example 3, 1-(6-(3-((4-(1-(Methoxycarbonyl)piperidin-4-yl)-2-methylphenoxy)methyl)-5-methylthiophen-2-yl)pyridin-2-yl)-5-(trifluoromethyl)-1H-pyrazole-4-carboxylic acid] | 8.85
Cc1cc(C2CCN(C(=O)C3CCOC3)CC2)ccc1OCc1ccsc1-c1cccc(-n2ncc(C(=O)O)c2C(F)(F)F)n1 (racemic) [Example 12-3, (±)-1-(6-(3-((2-Methyl-4-(1-(tetrahydrofuran-3-carbonyl)piperidin-4-yl)phenoxy)methyl)thiophen-2-yl)pyridin-2-yl)-5-(trifluoromethyl)-1H-pyrazole-4-carboxylic acid] | 8.16
CCc1c(C(=O)O)cnn1-c1cccc(-c2sccc2COc2ccc(C3CCN(C(=O)C4CC4)CC3)cc2C)n1 [Example 6-9, 1-(6-(3-((4-(1-(Cyclopropanecarbonyl)piperidin-4-yl)-2-methylphenoxy)methyl)thiophen-2-yl)pyridin-2-yl)-5-ethyl-1H-pyrazole-4-carboxylic acid] | ≥ 9.30
CCc1cc(OCc2cc(C)sc2-c2cccc(-n3ncc(C(=O)O)c3CC)n2)ccc1C1CCN(C(=O)C2CC2)CC1 [Example 35-9, 1-(6-(3-((4-(1-(Cyclopropanecarbonyl)piperidin-4-yl)-3-ethylphenoxy)methyl)-5-methylthiophen-2-yl)pyridin-2-yl)-5-ethyl-1H-pyrazole-4-carboxylic acid] | ≥ 9.30
Cc1cc(C2CCN(C(=O)C3CC3)CC2)ccc1OCc1c(-c2cccc(-n3ncc(C(=O)O)c3C(F)(F)F)n2)sc(C)c1C(C)C [Example 18-1, 1-(6-(3-((4-(1-(Cyclopropanecarbonyl)piperidin-4-yl)-2-methylphenoxy)methyl)-4-isopropyl-5-methylthiophen-2-yl)pyridin-2-yl)-5-(trifluoromethyl)-1H-pyrazole-4-carboxylic acid] | 8.15
Cc1cc(OCc2ccsc2-c2cccc(-n3ncc(C(=O)O)c3C(F)(F)F)n2)ccc1C1CCN(C(=O)C2CC2)CC1 [Example 35-5, 1-(6-(3-((4-(1-(Cyclopropanecarbonyl)piperidin-4-yl)-3-methylphenoxy)methyl)thiophen-2-yl)pyridin-2-yl)-5-(trifluoromethyl)-1H-pyrazole-4-carboxylic acid] | 8.52
Cc1cc(C2CCN(C(=O)C3CC3)CC2)ccc1OCc1c(C)csc1-c1cccc(-n2ncc(C(=O)O)c2C(F)(F)F)n1 [Example 4-4, 1-(6-(3-((4-(1-(Cyclopropanecarbonyl)piperidin-4-yl)-2-methylphenoxy)methyl)-4-methylthiophen-2-yl)pyridin-2-yl)-5-(trifluoromethyl)-1H-pyrazole-4-carboxylic acid] | ≥ 9.30
Cc1cc(COc2ccc([C@@H]3CCN(C(=O)C4CC4)C[C@H]3O)cc2)c(-c2cccc(-n3ncc(C(=O)O)c3C(F)(F)F)n2)s1 (single isomer, unassigned) [Example 35-6, (+)-trans-1-(6-(3-((4-((3,4)-1-(cyclopropanecarbonyl)-3-hydroxypiperidin-4-yl)phenoxy)methyl)-5-methylthiophen-2-yl)pyridin-2-yl)-5-(trifluoromethyl)-1H-pyrazole-4-carboxylic acid] | 7.04
